Measurements taken from patent US10995068B2, “Synthetic sphingolipid-like molecules, drugs, methods of their synthesis and methods of treatment” (The Regents of the University of California, priority 2015, dated 2021).
Values joined by “and” are separate entries in the source; they are usually repeats but may differ in a detail not shown here. Equal entries are not always repeated.

What was measured:
[1] = target: T1, S1P receptor 2 (Homo sapiens, UniProt O95136); assay: S1P receptor activation in CHO cells, S1P2; type: cell-based; details: CHO cells over-expressing human S1P2
T1 construct: expressed in transfected cells
T1 sequence (O95136 whole entry): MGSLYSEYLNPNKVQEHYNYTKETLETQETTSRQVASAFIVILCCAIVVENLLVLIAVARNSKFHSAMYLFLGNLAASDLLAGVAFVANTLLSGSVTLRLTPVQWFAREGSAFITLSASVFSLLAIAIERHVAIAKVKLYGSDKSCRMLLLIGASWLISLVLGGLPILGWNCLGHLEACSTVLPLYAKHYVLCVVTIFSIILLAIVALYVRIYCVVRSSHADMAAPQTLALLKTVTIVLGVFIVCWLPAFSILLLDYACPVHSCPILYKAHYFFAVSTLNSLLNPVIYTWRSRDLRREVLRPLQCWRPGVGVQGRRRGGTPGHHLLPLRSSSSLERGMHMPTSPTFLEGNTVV
Summary of the method: (§1)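 CHO cells stably overexpressing each human S1P receptor subtype, serum-starved 24 h, then stimulated 10 min in serum-free DMEM with 0.1 mg/ml fatty-acid-free BSA ± compounds or S1P. Lysates analysed by Western blot for phospho-Thr202/Tyr204-p42/p44-MAPK and phospho-Ser PKC substrate, normalised to total p42/p44.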

[2] = system: CD98 (4F2hc, SLC3A2); assay: Surface CD98 nutrient transporter down-regulation by flow cytometry; type: cell-based, murine; details: FL5.12 cells, surface CD98 at 3 h, flow cytometry, mean ± SEM, n ≥3
Source text: In an exemplified study, nutrient transporter down-regulation was monitored by quantifying surface levels of the amino acid transporter-associated protein, CD98, by flow cytometry. Vacuolation was scored in a range from 0 to […], as determined by a vacuolation assay described in greater detail in the Materials and Methods section below.
Cell culture studies: FL5.12 cells (murine hematopoetic cells originally obtained from Craig Thompson, Memorial Sloan Kettering Cancer Center) were maintained at 0.1-0.5 million/ml in RPMI 1640 (Mediatech) supplemented with 10% fetal calf serum (FCS, Sigma-Aldrich), 10 mM Hepes (Mediatech), 500 pg/ml recombinant IL-3 (cat #575502, Biolegend), 55 μM β-mercaptoethanol (Sigma-Aldrich), 2 mM L-glutamine (Mediatech), and antibiotics. Cells were screened for Mycoplasma every 3 months using the Look-Out Mycoplasma PCR Detection kit (cat #MP0035, Sigma).
Nutrient transporter expression: Surface CD98 (4F2hc, SLC3A2) expression was measured at 3 h using phycoerythrin (PE)-conjugated rat anti-mouse CD98 antibody (Biolegend, cat #128208); analysis was restricted to viable cells. PE conjugated Rat IgG2a, k (cat #400508, Biolegend) was used as an isotype control. For staining, 200,000 cells were pelleted, re-suspended in 100 μl FACS block (PBS with 10% FCS and 0.05% NaN3) containing 0.25 μL anti-CD98 antibody, incubated on ice for 30 min, washed twice with 1 ml FACS wash (PBS containing 2% FCS and 0.05% NaN3), and analyzed on a BD LSR II flow cytometer. Data was processed with FlowJo software (Treestar).

[3] = system: subcutaneous SW620 xenograft tumors; assay: SW620 xenograft study in nude mice; type: in vivo
Protocol: In even another exemplary study, anti-neoplasm potency of the constrained pyrrolidine sphingolipid-like compounds in xenograft tumor animal studies. Nude mice bearing subcutaneous SW620 xenograft tumors were treated daily with 10 mg/kg FTY720 or 20 mg/kg of compounds 5 or 15 by intraperitoneal injection. […] Furthermore, these compounds retain many of the beneficial abilities of FTY720, such as, for example water solubility, oral bioavailability, and anti-tumor activity but no longer trigger bradycardia. Thus, these compounds are ideal for medicaments and treatments for neoplasms.
SW620 and SW480 xenograft studies: For SW620 xenograft studies, two and one half million luciferase-expressing SW620 colon cancer cells suspended in PBS with 2% FCS are injected subcutaneously in the flank of 7 week old male nude mice (Charles Rivers Labs, Crl:NU(NCr)-Foxn1nu). When tumors reached 100 mm^3 in volume, mice are assigned to groups with matched average tumor volumes and animal weights. Four groups containing 7 mice are treated intraperitoneally with either vehicle (0.9% saline), 10 mg/kg FTY720, or 20 mg/kg compound 5 or compound 15. Tumor length and width are measured with calipers at 7 and 11 days of treatment. Tumor volume is calculated using the formula volume (mm^3)=length [mm]×(width [mm])^2×0.52. The average fold change in the volume of each tumor over time is shown.

[4] = target: T2, S1P receptor 3 (Homo sapiens, UniProt Q99500); assay: S1P receptor activation in CHO cells, S1P3; type: cell-based; details: CHO cells over-expressing human S1P3
T2 construct: expressed in transfected cells
T2 sequence (Q99500 whole entry): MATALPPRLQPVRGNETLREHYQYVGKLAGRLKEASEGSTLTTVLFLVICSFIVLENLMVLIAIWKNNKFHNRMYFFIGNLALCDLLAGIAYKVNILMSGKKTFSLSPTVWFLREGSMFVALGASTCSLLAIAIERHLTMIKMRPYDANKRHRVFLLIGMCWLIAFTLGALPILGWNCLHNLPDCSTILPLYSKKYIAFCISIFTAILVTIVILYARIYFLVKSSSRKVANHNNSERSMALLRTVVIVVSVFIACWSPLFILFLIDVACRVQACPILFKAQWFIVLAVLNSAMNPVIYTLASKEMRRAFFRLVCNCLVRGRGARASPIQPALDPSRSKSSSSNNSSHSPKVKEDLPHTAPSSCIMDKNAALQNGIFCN
Summary of the method: as §1

[5] = target: T3, S1P receptor 5 (Homo sapiens, UniProt Q9H228); assay: S1P receptor activation in CHO cells, S1P5; type: cell-based; details: CHO cells over-expressing human S1P5
T3 construct: expressed in transfected cells
T3 sequence (Q9H228 whole entry): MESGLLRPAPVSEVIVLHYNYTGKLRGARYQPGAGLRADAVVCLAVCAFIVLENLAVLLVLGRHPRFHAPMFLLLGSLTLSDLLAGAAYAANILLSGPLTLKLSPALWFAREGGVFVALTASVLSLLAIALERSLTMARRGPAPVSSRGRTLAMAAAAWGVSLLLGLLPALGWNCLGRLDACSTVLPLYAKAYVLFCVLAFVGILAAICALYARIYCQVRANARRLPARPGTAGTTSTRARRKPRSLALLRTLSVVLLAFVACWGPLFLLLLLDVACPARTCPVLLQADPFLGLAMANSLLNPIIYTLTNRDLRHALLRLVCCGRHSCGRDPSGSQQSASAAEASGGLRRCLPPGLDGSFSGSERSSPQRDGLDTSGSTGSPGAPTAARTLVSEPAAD
Summary of the method: as §1

Row | Structure (SMILES) | activation of S1P receptor 2 [1] | % CD98 down-regulation ([2]; listed as 104) | tumor growth of SW620 xenografts ([3]; 20 mg/kg daily by intraperitoneal injection) | activation of S1P receptor 3 [4] | activation of S1P receptor 5 [5] | % CD98 down-regulation [2] | tumor growth of SW620 xenografts ([3]; 10 mg/kg daily by intraperitoneal injection)
1 | CCCCCCCCc1ccc([C@H]2CCN[C@@H]2CO)cc1.Cl [Compound 5, (2S,3R)-2-(hydroxymethyl)-3-(4-octylphenyl)Pyrrolidinium chloride] | failed to activate | 54% and 54 ± 1% | inhibited tumor growth | failed to activate | failed to activate | – | –
2 | CCCCCCCCc1ccc([C@@H]2CCN[C@H]2CO)cc1.Cl [Compound 6] | failed to activate | – | – | failed to activate | failed to activate | – | –
3 | CCCCCCCCc1ccc(CCC(N)(CO)CO)cc1.Cl [FTY720, 2-Amino-2-[2-(4-octylphenyl)ethyl]propane 1,3-diol hydrochloride, reference compound] | – | – | – | – | – | 68 ± 3% | inhibited tumor growth
